Assay results published in paper PMC3136501 (PLoS ONE, 2011).
Where two headings read alike, the source gives them in different places.

Columns and labels:
[1] = humans, maximal total concentration in systemic circulation, cited from earlier work
human OCT3 = target: T1, human OCT3 (Homo sapiens, UniProt O75751); assay: Inhibition of OCT3-mediated metformin uptake in stably transfected HEK cells; type: cell-based; details: for IC50: 5 µM [14C]metformin uptake, 5 min, HEK-OCT3, means ± SE of 3 experiments; for OCT3-mediated metformin uptake at low PPI concentrations: low concentrations of PPI, Figure 3
T1 sequence (O75751 1-556): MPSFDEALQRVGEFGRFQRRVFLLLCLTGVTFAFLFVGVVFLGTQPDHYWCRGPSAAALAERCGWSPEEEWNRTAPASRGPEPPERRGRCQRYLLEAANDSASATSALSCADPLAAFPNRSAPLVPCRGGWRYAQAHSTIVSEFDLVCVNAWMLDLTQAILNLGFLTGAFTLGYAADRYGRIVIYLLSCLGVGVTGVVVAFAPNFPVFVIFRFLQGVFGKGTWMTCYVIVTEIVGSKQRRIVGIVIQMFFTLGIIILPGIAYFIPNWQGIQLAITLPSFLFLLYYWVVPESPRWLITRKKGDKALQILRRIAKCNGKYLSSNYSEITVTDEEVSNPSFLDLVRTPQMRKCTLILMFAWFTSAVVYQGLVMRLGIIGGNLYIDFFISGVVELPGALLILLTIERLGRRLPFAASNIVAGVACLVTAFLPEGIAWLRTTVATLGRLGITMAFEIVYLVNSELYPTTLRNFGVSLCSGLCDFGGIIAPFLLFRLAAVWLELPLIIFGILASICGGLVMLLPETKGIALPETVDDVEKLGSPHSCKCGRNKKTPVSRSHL
Method: SLC22A1 cDNA and SLC22A2 cDNA had been PCR-amplified from human liver and kidney, respectively, as reported elsewhere and cDNAs were provided by the German Cancer Research Center; the study and the use of the tissue were approved by the institutional review board of the German Cancer Center, Heidelberg, Germany. Since the data were analyzed anonymously, and tissues were left-over samples from diagnostic procedures, written informed consent had not been required and obtained. IRB specifically waived the need for consent due to the fact the human tissue material used was fully anonymized. SLC22A3 cDNA was amplified using SLC22A3-TrueClone (Origene, Rockville, MD, USA) as the template. SLC22A1 cDNA was cloned into the expression vector pcDNA3.1/Hygro(-) (Invitrogen, Darmstadt, Germany), SLC22A2 and SLC22A3 cDNA into pcDNA3.1(+) (Invitrogen). Each transporter cDNA was sequenced and the respective deduced amino acid sequence was identical to the published reference protein sequence (OCT1: NP_003048.1; OCT2: NP_003049.2; OCT3: NP_068812.1). The human embryonic kidney 293 (HEK) cell line was obtained from the American Type Culture Collection. HEK cells were grown in DMEM (Sigma) supplemented with 10% fetal bovine serum (Sigma), 100 U⋅ml^−1 penicillin, and 100 µg⋅ml^−1 streptomycin (Lonza, Basel, Switzerland) at 37°C and 5% CO2. HEK cells were transfected with Metafectene Pro (Biontex, München, Germany). Selection of clones stably expressing OCT1 was carried out with 0.5 mg⋅ml^−1 hygromycin as described. Similarly, clones stably expressing OCT2 or OCT3 were selected with 800 µg⋅ml^−1 G418. HEK cells stably transfected with the empty pcDNA3.1(+) vector served as controls (HEK-Co). Cells were incubated with 5 mM butyrate 24 h before use to increase protein levels of recombinant transporters.
HEK cells (400000 cells/well) were seeded into 24-well cell culture plates (Greiner Bio-One, Frickenhausen, Germany) and grown for 48 h. Cell adherence was improved by coating plates with poly-L-lysine (Biochrom AG, Berlin, Germany) prior to cell plating. All uptake studies were carried out at 37°C as described. For uptake measurements, cells were firstly washed with uptake buffer (145 mM NaCl, 5 mM hydroxyethylpiperazine ethanesulfonic acid, 3 mM KCl, 1 mM CaCl2, 0.5 mM MgCl2, 5 mM glucose, pH 7.4, [46]) prewarmed to 37°C. […] Uptake was stopped at indicated time points by removing the uptake buffer and immediately washing the cells 3 times with ice-cold uptake buffer. Cells were lysed with 0.2% SDS and intracellular radioactivity was determined by liquid scintillation counting (Hidex 300SL TDCR liquid scintillation counter, Turku, Finland). For measuring inhibition of OCT-mediated metformin uptake by PPIs, 5 µM [^14C]metformin uptake was measured in the presence of different PPI concentrations and stopped after 5 min (OCT1, OCT3) or 5 sec (OCT2).
OCT-specific metformin uptake was obtained by subtracting metformin uptake in the presence of 2 mM unlabeled 1-methyl-4-phenylpyridinium (MPP) from that in its absence. […] OCT-specific metformin uptake in the presence of a PPI was then calculated as percentage of that in the absence of the respective PPI (100% uninhibited). For each PPI concentration, 3 individual experiments each with 3 parallel measurements were performed. Apparent IC50 values for inhibition of metformin uptake by PPIs were calculated for each individual experiment by fitting the values to the Hill equation using GraphPad Prism 4 (GraphPad Software Inc., La Jolla, CA, USA). Values in Table 1 are given as the means ± SE of the 3 individual experiments.

[2] = set-up: method as in earlier work; details: computed property from PubChem Compound database; cited from earlier work
[3] = Pharmacokinetic data of PPIs in humans; type: in vivo; details: maximal total concentration in portal venous blood
OCT1 = system: OCT1; set-up: method as in PMID 21103969; details: transport substrate; cited from earlier work
OCT3 = system: OCT3; set-up: method as in PMID 21103969; details: transport substrate; cited from earlier work
OCT2 = system: OCT2; set-up: method as in PMID 21103969; details: transport substrate; cited from earlier work

Row | Compound | IC50 (human OCT3) | Heavy atom count [2] | Tautomer count [2] | OCT3-mediated metformin uptake at low PPI concentrations (human OCT3) | also measured
1 | Cc1c(OCC(F)(F)F)ccnc1C[S+]([O-])c1nc2ccccc2[nH]1 (centres unmarked) [Lansoprazole] | 3.1 ± 1.3 µM | 25 | 0 |  | Cmax ([1]; dosage 30 mg (81 µmol)): 2700 nM; Calculated Cport.vn. ([3]; equation 1 in ref 56, dosage 30 mg (81 µmol)): 7.8 µM
2 | C[n+]1ccc(-c2ccccc2)cc1 [MPP, 1-methyl-4-phenylpyridinium] |  |  |  |  | Metformin uptake by HEK-OCT3 in the presence of MPP (human OCT3; 5 µM metformin, 2 mM unlabeled MPP): almost completely absent; Km (OCT1): 15 to 32 µM; Km (OCT3): 47 to 83 µM; Km (OCT2): 3 to 19 µM
3 | COc1ccc2[nH]c([S+]([O-])Cc3ncc(C)c(OC)c3C)nc2c1 (centres unmarked) [Omeprazole] | 22 ± 2.2 µM | 24 | 2 |  | Cmax ([1]; dosage 20 mg (58 µmol)): 1800 nM; Calculated Cport.vn. ([3]; equation 1 in ref 56, dosage 20 mg (58 µmol)): 5.4 µM
4 | COc1ccnc(C[S+]([O-])c2nc3ccc(OC(F)F)cc3[nH]2)c1OC (centres unmarked) [Pantoprazole] | 22.9 ± 5.2 µM | 26 | 2 | activated | Cmax ([1]; dosage 40 mg (104 µmol)): 5500 nM; Calculated Cport.vn. ([3]; equation 1 in ref 56, dosage 40 mg (104 µmol)): 12.0 µM
5 | COCCCOc1ccnc(C[S+]([O-])c2nc3ccccc3[nH]2)c1C (centres unmarked) [Rabeprazole] | 3 ± 0.8 µM | 25 | 0 | activated | Cmax ([1]; dosage 20 mg (56 µmol)): 1200 nM; Calculated Cport.vn. ([3]; equation 1 in ref 56, dosage 20 mg (56 µmol)): 4.7 µM
6 | COc1ccc2[nH]c([S+]([O-])Cc3ncc(C)c(OC)c3C)nc2n1 (centres unmarked) [Tenatoprazole] | 14.7 ± 2.4 µM | 24 | 3 | activated | Cmax ([1]; dosage 40 mg (116 µmol)): 10000 nM; Calculated Cport.vn. ([3]; equation 1 in ref 56, dosage 40 mg (116 µmol)): 17.2 µM
